Columns and labels:
Format in all cases: in vivo, healthy men
[1] = tested on: sweet taste of saccharose (panel members); test: Inhibition of sweet taste of a saccharose solution, qualitative panel evaluation; set-up: key to Inhibition of sweet taste: ++: complete inhibition of sweet taste; −: lack of inhibition of sweet taste; settings: 100 mg saccharose in 5 ml 20% aqueous ethanol plus 100 mg compound, vs saccharose solution without compound
Procedure: (§1) Evaluation of the degree of sweetness of the compounds according to the present invention was performed using a 5-volunteer panel—healthy men—henceforth referred to as panel members. All panel members were informed of the need to maintain safety procedures during the evaluation of the compounds according to the present invention, In particular, of the need to avoid swallowing the tested solutions. Each of the panel members received a 10 ml sample of a solution in a small vial and rinsed out their mouth with the entire contents of the vial for 20 seconds and then spit out the tested solution. Next, they carefully rinsed out their mouth with a large volume of distilled water (at least 150 ml) for at least 30 seconds. When the panel member felt that they no longer perceived any taste, they could proceed with the evaluation of the next solution.
The inhibition of sweet taste of sweet substances or mixtures thereof by inhibitors of sweet taste according to the present invention was examine qualitatively according to the following procedure. Two samples of saccharose, each of 100 mg, are dissolved in 5 ml 20% of aqueous ethanol, and then one solution is supplemented with 100 mg of a compound of an example according to the present invention (compounds from examples 3, 5, and 8). Next, the taste of both solutions is evaluated using the procedure presented above, for the qualitative perception of a sweet taste. […] The study was also performed on compounds from comparative examples 1-19.

[2] = tested on: perception of sweet taste (panel members); test: Qualitative evaluation of the perception of sweet taste by a 5-volunteer panel; set-up: key to Perception of sweet taste: +: perception of sweet taste; ++: very strong perception of sweet taste; −: absence of sweet taste; settings: 4000 ppm solution in 20% ethanol, 5 panel members; for Perception of sweet taste: 10 ml mouth rinse 20 s
Procedure: Compounds according to the present invention destined for testing of their taste perception modifying properties were re-crystallized from ethanol or an ethanol-water mixture.
Qualitative evaluation of the perception of sweet taste; the examined substances were dissolved in a 20% ethanol and water mixture (vol./vol.).
Three initial solutions were formulated, containing: • the compound of example 1 (3-benzylaminomethylenedihydrofuran-2-one, 4000 ppm solution-400 mg in 100 ml 20% ethanol), • compound of example 2 ((R)-3-(1-phenylethylamino)methylenedihydrofuran-2-one, 4000 ppm solution-400 mg in 100 ml 20% ethanol), • compound of example 6 (2-benzylaminomethylenecyclopentanone, 4000 ppm solution−400 mg in 100 ml 20% ethanol).
Solutions of lower concentrations were obtained through dilution, to appropriate proportions, of the initial solutions with a 20% mixture of ethanol and distilled water (vol./vol.).
as §1
During the first stage, the panel members qualitatively examined the taste of the three initial solutions containing 4000 ppm of a compound according to the present invention. The panel members all agreed that the solutions have an intensive sweet taste.
An additional qualitative evaluation was made of compounds according to the present invention from examples 4, 7 and 9, and compounds from comparative examples 1-19, in the form of 4000 ppm solutions. […] Solutions of compounds from the comparative examples lack a sweet taste.

[3] = tested on: sweet taste of sweet-tasting products (panel members); test: Inhibition of sweet taste of sweet products, commercial sweeteners and sweet compounds by the compound of example 3; set-up: key to Perceived sweet taste: ++: Strong perception of sweet taste; key to Perception of sweet taste following the addition of the compound of example 3: <<+: Weak or absent perception of sweet taste; settings: for Perceived sweet taste: without compound of example 3
Procedure: Evaluation of the degree of sweetness of the compounds according to the present invention was performed using a 5-volunteer panel-healthy men-henceforth referred to as panel members. All panel members were informed of the need to maintain safety procedures during the evaluation of the compounds according to the present invention, In particular, of the need to avoid swallowing the tested solutions. Each of the panel members received a 10 ml sample of a solution in a small vial and rinsed out their mouth with the entire contents of the vial for 20 seconds and then spit out the tested solution. Next, they carefully rinsed out their mouth with a large volume of distilled water (at least 150 ml) for at least 30 seconds. When the panel member felt that they no longer perceived any taste, they could proceed with the evaluation of the next solution. Solutions of sweet products were prepared (saccharose, glucose, bee honey, glycine), by dissolving 100 mg of the product in 5 ml 20% aqueous ethanol. Two solutions are prepared of each product. One of these solutions is supplemented with a compound according to example 3 of the present invention (100 mg). Next, the taste of both solutions is compared for evaluating the qualitative perception of the taste of both solutions, proceeding according to the procedure established above, for the qualitative evaluation of the perception of sweet taste. The study results are compiled in Table 4. Solutions of commercially available sweeteners were prepared (“Sweet Top®” containing aspartame and […]®” containing sorbitol, sodium cyclamate and sodium saccharinate), by dissolving 5 mg of the sweetener in 20 ml of 20% aqueous ethanol. Each sweetener solution was made up twice. One of these solutions was supplemented with a compound according to example 3 of the present invention (5 mg). Next, the taste of both solutions was evaluated proceeding according to the procedure shown above, for the qualitative evaluation of the perception of sweet taste. The study results are compiled in Table 4. Solutions of compounds with a sweet taste according to the present invention were prepared (compounds of examples 1, 2 and 6), dissolving 5 mg of the compound according to the present invention in 20 ml 20% of aqueous ethanol. Two solutions were made of each compound of examples 1, 2 and 6. One of these solutions was supplemented with the compound of example 3 according to the present invention (5 mg). Next, the taste of both solutions was evaluated proceeding according to the above procedure for the qualitative evaluation of the perception of sweet taste. The study results are compiled in Table 4.

[4] = tested on: perception of sweetness (panel members); test: Comparative analysis of the intensity of the sweet taste against a 10% saccharose reference solution; settings: for Results of sweetness comparisons against the reference solution [+] (sample sweeter) / Results of sweetness comparisons against the reference solution [=] (unable to tell) / Results of sweetness comparisons against the reference solution [−] (sample less sweet): count out of 10 comparative tests, reference 10% saccharose in 20% ethanol
From the text: During the next stage, we performed a comparative analysis of the intensity of the sweet taste. In the study we used the compound of example 1 (3-benzyl-aminomethylenedihydrofuran-2-one). The subject of the study consisted of samples of the initial 4000 ppm solution, and samples of diluted solutions containing 2000, 1000, 800 and 500 ppm of the compound of example 1.
The reference solution comprised 10% saccharose (wt./wt.) in 20% ethanol, containing 100000 ppm (wt./wt.) saccharose.
The study operator gave the panel members samples of the compound with the formula 1 marked with randomly generated 3-digit numbers, and also samples of the reference solution of saccharose in order to compare the perception of sweetness to the saccharose reference solution. Each of the 5 panel members received for comparison random samples of the solutions of the compound of example 1, twice, containing 4000 ppm, 2000 ppm, 1000 ppm, 800 ppm and 500 ppm of the compound. Each concentration was thus examined in 10 comparative tests.
The task for each panel member was to determine whether a given sample is less or more sweet than the reference solution. Each of the panel members completed a form according to the following rules: if a sample was sweeter, then he placed a plus sign [+] beside the symbol of the sample, if it was less sweet, a minus sign [−], and if in doubt, an equal sign [=]. Similar to the qualitative analysis, each of the panel members received a sample of 10 ml of a solution in a small vial, gently rinsed his mouth out with it for 20 seconds and then spat out the tested solution. Next, he carefully rinsed out his mouth with a large volume of distilled water (at least 150 ml) for at least 30 seconds. When the panel member felt that he no longer perceived any taste, he could proceed with the evaluation of the next solution.

[5] = 5 mg in 20 ml 20% aqueous ethanol plus 5 mg compound of example 3
[6] = 5 mg in 20 ml 20% aqueous ethanol
[7] = approximate interpretation of the dilution series, comparison with a 10% saccharose solution in 20% ethanol
[8] = 100 mg product in 5 ml 20% aqueous ethanol plus 100 mg compound of example 3
[9] = 100 mg product in 5 ml 20% aqueous ethanol

C[C@H](NC=C1CCCC1=O)c1ccccc1 [Example 8, (S)-2-(1-phenylethyl)aminomethylenecyclopentanone]
Inhibition of sweet taste [1]: ++
Taste of the saccharose solution with the compound [1]: practically not sweet at all

CC[C@@H](NC=C1CCOC1=O)c1ccccc1 [Example 4, (R)-3-(1-phenylpropylo)aminomethylenedihydrofuran-2-one]
Taste of the solution as described by the panel members [2]: intensively sweet taste
Perception of sweet taste [2]: ++

C[C@H](NC=C1CCOC1=O)c1ccccc1 [Example 3, (S)-3-(1-phenylethyl)aminomethylenedihydrofuran-2-one]
Inhibition of sweet taste [1]: ++
Taste of the saccharose solution with the compound [1]: practically not sweet at all

CC[C@H](NC=C1CCOC1=O)c1ccccc1 [Example 5, (S)-3-(1-phenylpropylo)aminomethylenedihydrofuran-2-one]
Inhibition of sweet taste [1]: ++
Taste of the saccharose solution with the compound [1]: practically not sweet at all

O=C1OCCC1=CNCc1cccnc1 [Example 9, 3-(3-pirydylomethyl)aminomethylenedihydrofuran-2-one]
Bitter side taste [2]: somewhat bitter
Taste of the solution as described by the panel members [2]: significantly less sweet than the solution of 3-benzylaminomethylenedihydrofuran-2-one
Bitter side taste ([2]; listed as example 9): admixture of a bitter taste
Perception of sweet taste [2]: +

O=C1OCCC1=CNCc1ccccc1 [Example 1, 3-Benzylaminomethylenedihydrofuran-2-one]
Perception of sweet taste following the addition of the compound of example 3 [3, 5]: <<+
Sweet taste of the solution with an addition of the compound of example 3 (in words) [3, 5]: only a trace perceived sweet taste
Perceived sweet taste [3, 6]: ++
Results of sweetness comparisons against the reference solution [+] (sample sweeter) ([4]; 500 ppm in 20% ethanol): 2
Results of sweetness comparisons against the reference solution [=] (unable to tell) ([4]; 500 ppm in 20% ethanol): 2
Results of sweetness comparisons against the reference solution [−] (sample less sweet) ([4]; 500 ppm in 20% ethanol): 6
Results of sweetness comparisons against the reference solution [+] (sample sweeter) ([4]; 800 ppm in 20% ethanol): 2
Results of sweetness comparisons against the reference solution [=] (unable to tell) ([4]; 800 ppm in 20% ethanol): 6
Results of sweetness comparisons against the reference solution [−] (sample less sweet) ([4]; 800 ppm in 20% ethanol): 2
Results of sweetness comparisons against the reference solution [+] (sample sweeter) ([4]; 1000 ppm in 20% ethanol): 8
Results of sweetness comparisons against the reference solution [−] (sample less sweet) ([4]; 1000 ppm in 20% ethanol): 2
Results of sweetness comparisons against the reference solution [+] (sample sweeter) ([4]; 2000 ppm in 20% ethanol): 10
Results of sweetness comparisons against the reference solution [+] (sample sweeter) ([4]; 4000 ppm in 20% ethanol): 10
Times sweeter than saccharose [4, 7]: 200-250 times
Times sweeter than saccharose ([4]; concluded from the initial 4000 ppm solution vs 10% saccharose reference): at least 50 times
Sweetness of the initial solution compared with the reference solution (saccharose) ([4]; initial 4000 ppm solution vs 10% saccharose (100000 ppm) in 20% ethanol, all panel members): much sweeter than the reference solution
Perception of sweet taste [2]: ++

OC[C@H]1O[C@@](CO)(O[C@H]2O[C@H](CO)[C@@H](O)[C@H](O)[C@H]2O)[C@@H](O)[C@@H]1O [saccharose, reference compound]
Perception of sweet taste following the addition of the compound of example 3 [3, 8]: <<+
Sweet taste of the solution with an addition of the compound of example 3 (in words) [3, 8]: do not elicit the perception of a sweet taste, not even a weak one
Perceived sweet taste [3, 9]: ++

C[C@@H](NC=C1CCOC1=O)c1ccccc1 [Example 2, (R)-3-(1-phenylethyl)aminomethylenedihydrofuran-2-one]
Perception of sweet taste following the addition of the compound of example 3 [3, 5]: <<+
Sweet taste of the solution with an addition of the compound of example 3 (in words) [3, 5]: does not exhibit a sweet taste
Perceived sweet taste [3, 6]: ++
Times sweeter than saccharose [4, 7]: 200-250 times
Perception of sweet taste [2]: ++

NCC(=O)O [glycine, reference compound]
Perception of sweet taste following the addition of the compound of example 3 [3, 8]: <<+
Sweet taste of the solution with an addition of the compound of example 3 (in words) [3, 8]: do not elicit the perception of a sweet taste, not even a weak one
Perceived sweet taste [3, 9]: ++

C[C@@H](NC=C1CCCC1=O)c1ccccc1 [Example 7, (R)-2-(1-phenylethyl)aminomethylenecyclopentanone]
Taste of the solution as described by the panel members [2]: intensively sweet taste
Perception of sweet taste [2]: ++

O=C1CCCC1=CNCc1ccccc1 [Example 6, 2-Benzylaminomethylenecyclopentanone]
Perception of sweet taste following the addition of the compound of example 3 [3, 5]: <<+
Sweet taste of the solution with an addition of the compound of example 3 (in words) [3, 5]: only a trace perceived sweet taste
Perceived sweet taste [3, 6]: ++
Times sweeter than saccharose [4, 7]: at least 250 times
Perception of sweet taste [2]: ++

From US8846125B2, “Enaminocarbonyl compounds and their use” (Instytut Chemii Organicznej, Polska Akademia Nauk, priority 2009, dated 2014)
